The target in one data set is Neuropilin-1 (Rattus norvegicus, UniProt Q9QWJ9). Nature of the data set: Inhibition of biotin labelled VEGF165 binding to rat recombinant NRP-1/Fc chimeric protein incubated for overnight by competitive ELISA method. The settings on record: for pIC50: read-out: IC50. For orientation: In an ELISA, binding on a coated surface is turned into a signal by an enzyme label.

Data set [1] concerns the target Neuropilin-1 (Rattus norvegicus) (UniProt Q9QWJ9). Nature of the data set: Inhibition of biotin-labelled VEGF165 binding to rat recombinant NRP-1/Fc chimeric protein at 3 uM incubated for overnight by competitive ELISA method relative to control.
The target is the same in data set [2]. The data set is described as follows: Inhibition of biotin labelled VEGF165 binding to rat recombinant NRP-1/Fc chimeric protein at 0.3 uM incubated for overnight by competitive ELISA method relative to control.
Data set [3] has the same target. The data set is described as follows: Inhibition of biotin-labelled VEGF165 binding to rat recombinant NRP-1/Fc chimeric protein at 10 uM incubated for overnight by competitive ELISA method relative to control.
Data set [4] shares this target. The data set is described as follows: Inhibition of biotin-labelled VEGF165 binding to rat recombinant NRP-1/Fc chimeric protein at 1 uM incubated for overnight by competitive ELISA method relative to control.
A short description of data set [5]: Cytotoxicity against HUVEC at 10 to 1000 uM measured after 24 to 96 hrs by MTS assay. Type of data set: toxicity, cell-based. The settings on record: human. For orientation: Formazan colour is commonly taken as a measure of viable cells.
Data set [6] in a line: Cytotoxicity against human MDA-MB-231 cells at 10 to 1000 uM measured after 24 to 96 hrs by MTS assay. Type of data set: toxicity, cell-based. The settings on record: mda-mb-231, 1000 µM.

pIC50: −log10 of the molar value. Positions of bridges follow the written chain, without caps; N, C: chain ends. Non-standard residues stand in square brackets, D forms with d. Residues, ends and D or L forms follow the SMILES beside them. Orn = NCCC[C@H](N)C(=O)O

A word on the pIC50: it is the IC50 on a negative log10 scale, so that one unit is a factor of ten. In general, inhibition refers to the relative decrease from the control value, in per cent. `N=C(N)NCCC[C@H](NC(=O)CC[C@@H]1NC(=O)[C@H]2CCCN2C(=O)[C@@H](N)CCCCNC(=O)CC[C@@H](C(=O)N[C@@H](CCCNC(=N)N)C(=O)O)NC(=O)[C@H]2CCCN2C(=O)[C@H](CCCCN)NC1=O)C(=O)O`: the pIC50 at Neuropilin-1 is 6.05. The IC50 on Neuropilin-1 (read-out: pIC50 (converted)) was 1000 nM. The inhibition came to 72.2% in data set [1], 30.1% in data set [2], 86.8% in data set [3] and 46.6% in data set [4].
With `N=C(N)NCCC[C@H](NC(=O)[C@@H]1CCCCNC(=O)CC[C@H](N)C(=O)N2CCC[C@H]2C(=O)N1)C(=O)O` (H-EPKR-OH; lactam 1-3), the pIC50 on Neuropilin-1 was 6.80. Also, the Activity entry in data set [5] and in data set [6] was “Non-Toxic” each time. Further, the inhibition in data set [1] was determined as 85.4%; in data set [2] it was 68.3%; in data set [3] it was 89%; in data set [4] it was 79%.
In the case of `N=C(N)NCCC[C@H](NC(=O)[C@@H]1CC(=O)NCCCC[C@H](N)C(=O)N2CCC[C@H]2C(=O)N1)C(=O)O` (H-KPDR-OH; lactam 1-3), the pIC50 at Neuropilin-1 was less than 5.00. In addition, the results for the inhibition in data set [1], in data set [3] and in data set [4] were 12.5%, 14.7% and 11.8%, respectively.
Take `N=C(N)NCCC[C@H](NC(=O)[C@@H]1CCC(=O)NCCC[C@H](N)C(=O)N2CCC[C@H]2C(=O)N1)C(=O)O` (H-[Orn]PER-OH; lactam 1-3): the pIC50 at Neuropilin-1 is less than 5.00. Also, the inhibition in data set [1] worked out at 35.4%; in data set [2], 14.6%; in data set [3], 46.6%; in data set [4], 27.8%.
On to `N=C(N)NCCC[C@H](NC(=O)[C@@H]1CCC(=O)NCCCC[C@@H](N)C(=O)N2CCC[C@H]2C(=O)N1)C(=O)O` (H-[dK]PER-OH; lactam 1-3), for which the pIC50 on Neuropilin-1 was less than 5.00. Further, the inhibition in data set [1] came out at 2.3%; in data set [3], 4%; in data set [4], 1.1%.

The record behind these values is ChEMBL document CHEMBL3875187, “Structure-activity relationship study of a small cyclic peptide H-c[Lys-Pro-Glu]-Arg-OH: a potent inhibitor of Vascular Endothelial Growth Factor interaction with Neuropilin-1” (Bioorg Med Chem, 2017).
